Assay results reported in US6676932B2, “Ultraviolet absorbent, photostabilizer, ultraviolet ray-absorbing composition, photostabilized composition and external preparation for skin” (Shiseido Co., Ltd., priority 2001, dated 2004).

What was measured:
sunburn = test: Ultraviolet preventive effect, application test on beach in summer (Test Example 2); format: in vivo, human
Method: An application test was carried out on beach in summer. Equal volumes of samples were individually coated on back halves of subjects. After exposure to direct daylight, the degree of sunburn was assessed according to the following assessment standards. Each group consists of 10 subjects.
Prominently effective: none or almost no sunburn symptom was observed.
Effective: light sunburn symptom was observed.
Ineffective: strong sunburn symptom was observed.
⊚: prominently effective or effective for 80% or more of the subjects.
◯: prominently effective or effective for 50% or more to less than 80% of the subjects.
Δ: prominently effective or effective for 30% or more to less than 50% of the subjects.
x: prominently effective or effective for less than 30% of the subjects.
The aqueous phase and the alcohol phase were separately prepared and then mixed together.
Propylene glycol was added to and dissolved in ion exchange water. The resulting solution was retained at 70° C. under heating (aqueous phase). Other ingredients were mixed […]. The resulting mixture was melted under heating and retained at 70° C. (oil phase). The oil phase was added to the aqueous phase, for preliminary emulsification with a homomixer to homogeneity. Under thorough mixing, subsequently, the mixture was cooled to 30° C.

skin = test: Test of skin irritation: 24-hour occlusion patch test (Test Example 3 ii); format: in vivo, human; conditions: 10 wt % ultraviolet absorbent
Method: The same samples as in the Test Example 2 were used (at a 10 wt % amount of an ultraviolet absorbent).
20 Healthy male and female volunteers per one group were carried out in a 24-hour occlusion patch test, using a fin chamber on forearm curves. Assessment was done on the basis of the following assessment standards.
Mean score was determined for the assessment on the basis of the following standards.
◯: mean score of more than 0 to less than 1.
Δ: mean score of 1 or more to less than 2.
x: mean score of 2 or more.

[1] = Photostability test of aqueous solutions under daylight (Test Example 4); format: physicochemical; conditions: aqueous solution, daylight for 2 weeks (80 MJ)
Method: Aqueous solutions of the pyridazine derivative of the invention were exposed to daylight for 2 weeks (at a daylight exposure of 80 MJ). Subsequently, the remaining ratio and the change of the appearance were examined to measure the ultraviolet spectra with a spectrophotometer (solvent: water; concentration of 10 ppm and optical path length of 1 cm). The area under ultraviolet spectra curve from 290 nm to 400 nm were determined by integration to compare the area with the area before daylight exposure.
The remaining ratio and the change of the area under the ultraviolet spectrum were determined on the basis of the following standards.
⊚: 95% or more of those before daylight exposure.
◯: 90% or more to less than 95% of those before daylight exposure.
Δ: 70% or more to less than 90% of those before daylight exposure.
x: less than 70% of those before daylight exposure.

[2] = Stability test in combination with inorganic powder-based ultraviolet shielding agent, sunscreen cream (Test Example 5); format: physicochemical; conditions: sunscreen cream with inorganic powders; ultraviolet absorbent 10.0 wt %; 50° C. for 2 months; visual observation
Method: A sunscreen cream of the following formulation was prepared and stored at 50° C. for 2 months. Under visual observation of the color change, the stability of the inventive pyridazine derivative in combination with inorganic powder-based ultraviolet screening agents commonly in blend as external preparations for skin for the purpose of ultraviolet prevention was examined.
After the ingredient 2 was added to the ingredient 1 to swell the ingredient 2, the ingredients 3 to 11 were mixed with the resulting mixture under heating, for sufficient dispersion and dissolution. While keeping the dispersion at 70° C., a solution of the mixture of the ingredients 12 to 15 was gradually added to the dispersion under thorough emulsification with a homomixer. The resulting mixture was cooled to 30° C. under sufficient stirring to prepare sunscreen creams.

[3] = Dye stabilization effect under daylight exposure (Test Examples 6-91); format: physicochemical; design: key to Δ E: color difference ΔE in Lab vs. color before daylight exposure; key to Appearance (visual determination): ◯: no change; Δ: almost no change; x: change; conditions: photostabilizer 0.05 wt %, daylight exposure (80 MJ)
Method in brief: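 Test samples exposed to daylight to 80 MJ; appearance judged visually. Colour measured by spectrophotometer in Lab coordinates, with ΔE calculated relative to pre-exposure values (L1, a1, b1).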

[4] = Drug stabilization effect under daylight exposure (Test Examples 182 to 211); format: physicochemical; design: key to Appearance (visual determination): ◯: no change; Δ: almost no change; x: change; conditions: photostabilizer 0.05 wt %, daylight exposure (80 MJ); for Remaining ratio (%): liquid chromatography
Method: For observation of the change of the appearance of each test sample (determination based on visual observation) and the measurement of the remaining ratio by liquid chromatography before and after daylight exposure (80 MJ), the test sample was prepared.

[5] = Dye stabilization effect in blend with sequestering agents (Test Examples 212 to 275); format: physicochemical; conditions: dye Red 227 (Acid Fuchsine D) 0.0001, photostabilizer 0.01, daylight exposure (80 MJ)
Method in brief: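 Colour difference (ΔE) measured by spectrophotometer in Lab coordinates before and after daylight exposure (80 MJ), relative to pre-exposure values (L1, a1, b1); appearance change also assessed visually.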

[6] = Drug stabilization effect blended with sequestering agent (Test Examples 372 to 391); format: physicochemical; design: key to Appearance (visual determination): ◯: no change; Δ: almost no change; x: change; conditions: drug Salicylic acid 0.1, photostabilizer blend amount 0.03, daylight exposure (80 MJ)
Method in brief: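 Compositions combining the pyridazine derivative with sequestering agents were exposed to daylight (80 MJ). Appearance was judged visually, and drug remaining ratio was measured by liquid chromatography before and after exposure.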

[7] = dye Blue 1 (Brilliant Blue FCF) 0.0001 wt %
[8] = dye Green 3 (Fast Green FCF) 0.001 wt %
[9] = dye Red 227 (Acid Fuchsine D) 0.0001 wt %
[10] = dye Yellow 5 (Sunset Yellow FCF) 0.001 wt %
[11] = dyes Red 213 (Rhodamine B) 0.00001 + Blue 1 (Brilliant Blue FCF) 0.00001 wt %
[12] = dyes Red 227 (Acid Fuchsine D) 0.0001 + Yellow 5 (Sunset Yellow FCF) 0.0001 wt %
[13] = dyes Red 401 (Violanin R) 0.0001 + Blue 1 (Brilliant Blue FCF) 0.00001 wt %
[14] = drug L-ascorbic acid 2-glucoside 2.0 wt %
[15] = drug dibutylhydroxytoluene 0.01 wt %
[16] = drug dl-α-tocopherol 2-L-ascorbic acid phosphate diester potassium salt 0.01 wt %

Color change [2]: no
Remaining ratio (%) [4, 14]: 99.3%
Remaining ratio (%) [4, 15]: 99.0%
Remaining ratio (%) [4, 16]: 99.1%
Remaining ratio (%) ([4]; drug salicylic acid 0.1 wt %): 99.6%
Appearance (visual determination) ([6]; no sequestering agent): Δ
Appearance (visual determination) ([6]; with ethylenediamine tetraacetate trisodium 0.03): ◯
SMILES: Oc1nncc(N2CCCCC2)c1N1CCCCC1 [4,5-Dipiperidino-3-hydroxypyridazine]
Ultraviolet prevention effect (sunburn; cream, blend amount 0.0005 wt %): Δ (prominently effective or effective for 30% or more to less than 50% of the subjects)
Ultraviolet prevention effect (sunburn; cream, blend amount 0.001 wt %): ◯ (prominently effective or effective for 50% or more to less than 80% of the subjects)
Ultraviolet prevention effect (sunburn; cream, blend amount 0.01 wt %): ⊚ (prominently effective or effective for 80% or more of the subjects)
Ultraviolet prevention effect (sunburn; cream, blend amount 1 wt %): ⊚ (prominently effective or effective for 80% or more of the subjects)
Ultraviolet prevention effect (sunburn; cream, blend amount 5 wt %): ⊚ (prominently effective or effective for 80% or more of the subjects)
Ultraviolet prevention effect (sunburn; cream, blend amount 10 wt %): ⊚ (prominently effective or effective for 80% or more of the subjects)
Ultraviolet prevention effect (sunburn; cream, blend amount 20 wt %): ⊚ (prominently effective or effective for 80% or more of the subjects)
Ultraviolet prevention effect (sunburn; lotion, blend amount 0.0005 wt %): Δ (prominently effective or effective for 30% or more to less than 50% of the subjects)
Ultraviolet prevention effect (sunburn; lotion, blend amount 0.001 wt %): ◯ (prominently effective or effective for 50% or more to less than 80% of the subjects)
Ultraviolet prevention effect (sunburn; lotion, blend amount 0.01 wt %): ⊚ (prominently effective or effective for 80% or more of the subjects)
Ultraviolet prevention effect (sunburn; lotion, blend amount 1 wt %): ⊚ (prominently effective or effective for 80% or more of the subjects)
Ultraviolet prevention effect (sunburn; lotion, blend amount 5 wt %): ⊚ (prominently effective or effective for 80% or more of the subjects)
Ultraviolet prevention effect (sunburn; lotion, blend amount 10 wt %): ⊚ (prominently effective or effective for 80% or more of the subjects)
Ultraviolet prevention effect (sunburn; lotion, blend amount 20 wt %): ⊚ (prominently effective or effective for 80% or more of the subjects)
Determination (skin reaction, patch test) (skin; cream): ⊚ (mean score of 0)
Determination (skin reaction, patch test) (skin; lotion): ⊚ (mean score of 0)
Remaining ratio [1]: ⊚ (95% or more of those before daylight exposure)
Change of area under ultraviolet spectrum ([1]; 290 nm to 400 nm): ⊚ (95% or more of those before daylight exposure)
Appearance (visual determination) [3, 7]: ◯
Δ E [3, 7]: 1.22
Appearance (visual determination) [3, 8]: ◯
Δ E [3, 8]: 0.45
Appearance (visual determination) [3, 9]: ◯
Δ E [3, 9]: 0.53
Appearance (visual determination) [3, 10]: ◯
Δ E [3, 10]: 0.55
Appearance (visual determination) [3, 11]: ◯
Δ E [3, 11]: 1.11
Appearance (visual determination) [3, 12]: ◯
Δ E [3, 12]: 0.63
Appearance (visual determination) [3, 13]: ◯
Δ E [3, 13]: 0.38
Appearance (visual determination) [4, 14]: ◯
Appearance (visual determination) [4, 15]: ◯
Appearance (visual determination) [4, 16]: ◯
Appearance (visual determination) ([4]; drug salicylic acid 0.1 wt %): ◯
Δ E ([5]; no sequestering agent): 0.98
Δ E ([5]; with ethylenediaminehydroxyethyl trisodium triacetate 0.02): 0.52
Δ E ([5]; with ethylenediaminetetraacetate trisodium 0.02): 0.72
Δ E ([5]; with sodium metaphosphate 0.02): 0.61
